Here are results for three compounds from patent US4883758A, “Biologically pure culture of the microorganism Streptomycas tropolofaciens used for producing 3,7-dihydroxytropolone and antitumor use” (priority 1989, dated 1989).

Molecules are shown by their SMILES. Like-named read-outs stand apart in the source and are kept apart here.

Data set [1] relates to Melanoma B16. Nature of the data set: In vivo antitumor activity against melanoma B16 in mice, Exp. 2. Also on record: species or system male BDF1 mice; murine tumor. The conditions noted are these: for Average weight change on day 5: B16 Exp. 2, qd 1→9, ip. The procedure:
(§1) BU-3129T (3,7-dihydroxytropolone) and its analogs were tested for in vitro cytotoxicity against logarithmically growing murine melanoma tumor cells in liquid culture. B16-F10 cells (4×10^4 cells) in the enriched MEM (Minimum essential medium (Eagle's)) containing test material solution were planted into wells of 96-well microtiter plates and incubated at 37° C., with 5% CO2 under high humidity for 72 hours. After staining with neutral red, cytotoxicity of test material was determined colorimetrically. The inhibitory effects on macromolecule biosynthesis were examined in cultured L1210 leukemia cells. L1210 cells (5×10^5 cells) were exposed to radioactive precursors (^3 H-thymidine, ^14 C-uridine and ^3 H-leucine) for 60 min after the treatment with test material for 15 min. The incorporated radioactivities into acid-insoluble fractions were measured by using a liquid scintillation counter. The in vivo antitumor activity of BU-3129T was determined in male BDF1 mice against leukemia P388 and melanoma B16. Leukemia P388 and melanoma B 16 were inoculated by the intraperitoneal injection at 10^6 cells and 0.5 ml of a 10% tumor brei per mouse, respectively. Test material was administered to mice intraperitoneally once daily through 1 to 9 days after tumor implantation. Tropolone and mitomycin C were comparatively tested in the experiments.

A further data set deals with Leukemia P388. Type of data set: in vivo, male BDF1 mice; murine tumor. The settings on record: for T/C: MST. The protocol:
as §1

For data set [2], the system named is Melanoma B16. Nature of the data set: In vivo antitumor activity against melanoma B16 in mice, Exp. 1. Also on record: species or system male BDF1 mice; murine tumor. The conditions noted are these: for T/C: MST. The procedure: as §1
In data set [3] the test system is B16-F10 murine melanoma tumor cells. Nature of the data set: In vitro cytotoxicity against B16-F10 melanoma cells (72 h, neutral red). Type of data set: cell-based. The procedure:
as §1

The conditions of data set [4]: Kirst, et. al., J. Antibiotics 1982; cited from earlier work.
The mark [5] stands for this setting: P388, 0.63 mg/kg/day, qd 1→9, ip.
Setting [6] is: B16 Exp. 1, 0.1 mg/kg/day, qd 1→9, ip.
Where [7] appears, read: B16 Exp. 1, 0.3 mg/kg/day, qd 1→9, ip.
The mark [8] stands for this setting: B16 Exp. 1, 1.0 mg/kg/day, qd 1→9, ip.
The mark [9] stands for this setting: B16 Exp. 1, 0.16 mg/kg/day, qd 1→9, ip.
Setting [10] is: B16 Exp. 1, 0.31 mg/kg/day, qd 1→9, ip.
The mark [11] stands for this setting: B16 Exp. 1, 0.63 mg/kg/day, qd 1→9, ip.
The mark [12] stands for this setting: B16 Exp. 1, 1.3 mg/kg/day, qd 1→9, ip.
Setting [13] is: B16 Exp. 1, 2.5 mg/kg/day, qd 1→9, ip.

With `O=c1cccccc1O` [Tropolone], the “Average weight change on day 5” value in the data set with Melanoma B16 [1] (1.0 mg/kg/day) is reported as “+2.3 g”; in the data set on Melanoma B16 [1] (3.0 mg/kg/day), “+2.5 g”; in the data set on Melanoma B16 [1] (10 mg/kg/day) it was “+3.3 g”; in the data set with Melanoma B16 [1] (30 mg/kg/day), “+2.0 g”. Further, the “Antitumor activity against melanoma B16 (in words)” value with Melanoma B16 [1] (at the doses tested) is “did not show any activity”.

For `CO[C@@]12[C@H](COC(N)=O)C3=C(C(=O)C(C)=C(N)C3=O)N1C[C@@H]1N[C@@H]12` [Mitomycin C, reference compound], the MST is on record as 21.0 days in the data set with Leukemia P388 (setting [5]), 22.0 days in the data set on Melanoma B16 [2] (setting [7]) and 27.0 days in the data set on Melanoma B16 [2] (setting [8]). Besides, the T/C – broadly, the ratio of treated to control – with Leukemia P388 (P388, 0.08 mg/kg/day, qd 1→9, ip) is on record as 114%; with Leukemia P388 (P388, 0.16 mg/kg/day, qd 1→9, ip) it was 143%; with Leukemia P388 (P388, 0.31 mg/kg/day, qd 1→9, ip), 152%; in the data set with Leukemia P388 (setting [5]) it was 200%; in the data set on Leukemia P388 (P388, 1.3 mg/kg/day, qd 1→9, ip), 200%; with Melanoma B16 [2] (setting [6]) it was 100%. For the same compound, the T/C in the data set on Melanoma B16 [2] (setting [7]) came out at 128%; with Melanoma B16 [2] (setting [8]), 169%. In addition, the results for the “Average weight change on day 5” value in the data set with Melanoma B16 [2] (setting [6]), in the data set on Melanoma B16 [2] (setting [7]) and with Melanoma B16 [2] (setting [8]) were “+1.0 g”, “+0.4 g” and “+0.6 g”, respectively.

For the compound `O=c1c(O)cccc(O)c1O` [BU-3129T, 3,7-dihydroxytropolone], the “Potency in the in vitro cytotoxicity test” value in data set [3] is given as “most potent”. For the same compound, the “Antitumor activity against leukemia P388 (in words)” value with Leukemia P388 (mice bearing murine tumors, ip) is reported as “no activity”. For the same compound, the “Average weight change on day 5” value is reported as “+0.4 g” in the data set on Melanoma B16 [2] (setting [9]); “+1.2 g” in the data set with Melanoma B16 [2] (setting [10]); “+1.0 g” in the data set with Melanoma B16 [2] (setting [11]); “+0.4 g” with Melanoma B16 [2] (setting [12]); -0.8 g with Melanoma B16 [2] (setting [13]). Also, the MST in the data set with Melanoma B16 [2] (setting [9]) worked out at 16.0 days; with Melanoma B16 [2] (setting [10]) it was 18.0 days; in the data set on Melanoma B16 [2] (setting [11]), 23.0 days; in the data set on Melanoma B16 [2] (setting [12]), 29.0 days; with Melanoma B16 [2] (setting [13]) it was 12.0 days. Also, in the data set with Melanoma B16 [2] (B16 Exp. 1, 5.0 mg/kg/day, qd 1→9, ip), the “tox” value is reported as “tox”. The T/C in the data set with Melanoma B16 [2] (setting [9]) stood at 100%; with Melanoma B16 [2] (setting [10]), 113%; in the data set on Melanoma B16 [2] (setting [11]), 144%; with Melanoma B16 [2] (setting [12]), 181%; in the data set with Melanoma B16 [2] (setting [13]), 75%. Further, in the data set on Melanoma B16 [2] (mice bearing murine tumors, ip), the “Antitumor activity against melanoma B16 (in words)” value is “significant antitumor activity”. Moreover, in the data set with Melanoma B16 [2] (overall conclusion from the data), the “Inhibitory action against mammalian malignant tumors (in words)” value was “marked inhibitory action”. Moreover, in data set [4], the Antimicrobial activity entry is “possesses antimicrobial activity”.
